Test results published in patent US20190117535A1, “ORAL RINSE” (Church & Dwight Co., Inc., priority 2017, published 2019).
Blank lines part the entries; values can stand above or below the molecule they belong to.

What was measured:
[1] = Mixing time until clear solution / until TSPP is dissolved
Method: With US sourced raw materials, deionized water and sorbitol were combined. TSPP was added and fully dissolved. Zinc chloride was then added.
With US sourced raw materials, deionized water and sorbitol were combined. TSPP and zinc chloride were then simultaneously added and fully dissolved.
With Montreal sourced raw materials, deionized water and sorbitol were combined. Zinc chloride, TSPP, DSPP, and saccharin were then simultaneously added and mixed.
Charged deionized water, sorbitol, and saccharin were mixed until dissolved. A 50% zinc chloride solution was added and mixed. […] TSPP was added and mixed. […] Charged DSPP was added. […] The mix time to get the TSPP into solution was 28 minutes.
A 50% zinc chloride solution was prepared. Water and sorbitol were added to the main mix tank followed by saccharin. Saccharin was allowed to fully dissolve before adding the zinc chloride premix. […] TSPP was then added and it took 70 minutes to fully dissolve.
Mix times for TSPP to go into solution were 30 minutes (25 KG) & 23 minutes (150 KG).

[2] = Visual observation of precipitate formation / clarity while making the oral rinse composition; assay type: physicochemical
Method: A pilot trial was conducted to determine how sorbitol was affecting precipitate. A deionized water/sorbitol solution was made up and added to an empty chamber. […] A second trial was done with sorbitol as a rinse first, and then water was added.

Structure (SMILES): O=P([O-])([O-])OP(=O)([O-])[O-].[Na+].[Na+].[Na+].[Na+] [TSPP, tetrasodium pyrophosphate]
mix time to get the TSPP into solution ([1]; full pilot batch (150 KG), 50% zinc chloride solution): 28 min
time for TSPP to fully dissolve ([1]; full scale batch (800 KG), TSPP added after 50% zinc chloride premix): 70 min
dissolution time of TSPP ([1]; full scale batch (8000 KG), 62% zinc chloride solution, TSPP powder sifted through a screen): about 30 minutes
mix time for TSPP to go into solution ([1]; pilot trial 25 KG, 62% zinc chloride solution): 30 min
mix time for TSPP to go into solution ([1]; pilot trial 150 KG, 62% zinc chloride solution): 23 min
mixing time until solution clear after TSPP addition ([1]; pilot trial, TSPP added after 50% zinc chloride solution): 50 min

precipitate on rinsing the container ([2]; sorbitol as a rinse first, then water added): No precipitate formed
Structure (SMILES): OC[C@@H](O)[C@@H](O)[C@H](O)[C@@H](O)CO [sorbitol]
precipitate on rinsing the container ([2]; deionized water/sorbitol solution added to empty chamber): No precipitate formed, but solution was slightly cloudy
